A short description of experiment [1]: Binding affinity towards Mu opioid receptor.
In experiment [2] the target is Kappa-type opioid receptor (Cavia porcellus, UniProt P41144). As to the kind of experiment: Inhibitory concentration against Kappa opioid receptor of guinea pig ileum. The class given is tissue-based.
Experiment [3] in a line: Binding affinity towards Kappa opioid receptor.
Experiment [4] addresses Delta-type opioid receptor (Mus musculus) (UniProt P32300). As to the kind of experiment: Binding potency towards Delta opioid receptor of mouse vas deferens. The class given is tissue-based.
The target of experiment [5] is Mu-type opioid receptor (Cavia porcellus) (UniProt P97266). As to the kind of experiment: Binding potency towards Mu opioid receptor of guinea pig ileum. The experiment is classed as tissue-based.
Mu-type opioid receptor (Cavia porcellus), sequence (P97266 whole entry): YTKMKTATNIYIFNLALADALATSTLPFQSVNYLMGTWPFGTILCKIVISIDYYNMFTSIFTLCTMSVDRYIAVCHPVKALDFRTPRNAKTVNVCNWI
In experiment [6] the target is Kappa-type opioid receptor (Cavia porcellus) (UniProt P41144). The experiment is described as follows: Binding potency towards Kappa opioid receptor of guinea pig ileum. The experiment is classed as tissue-based.
Kappa-type opioid receptor (Cavia porcellus), sequence (P41144 whole entry): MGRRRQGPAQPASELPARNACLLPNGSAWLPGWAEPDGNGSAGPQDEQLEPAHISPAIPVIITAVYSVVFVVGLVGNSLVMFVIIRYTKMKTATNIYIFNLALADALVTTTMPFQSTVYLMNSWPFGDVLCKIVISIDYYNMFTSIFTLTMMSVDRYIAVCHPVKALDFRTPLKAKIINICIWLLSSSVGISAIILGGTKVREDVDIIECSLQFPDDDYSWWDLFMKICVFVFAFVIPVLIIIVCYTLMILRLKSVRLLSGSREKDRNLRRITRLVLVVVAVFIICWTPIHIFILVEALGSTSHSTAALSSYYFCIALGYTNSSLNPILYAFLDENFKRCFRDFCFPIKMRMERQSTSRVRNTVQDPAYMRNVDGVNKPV
The nature of experiment [7]: Binding affinity towards Opioid receptor mu 1.

In general, Ki refers to the equilibrium dissociation constant of an inhibitor or competing ligand from its target. The IC50 is the concentration needed to halve the response being measured. Read a low IC50 as higher potency.

Delta-type opioid receptor (Mus musculus), sequence (P32300 whole entry): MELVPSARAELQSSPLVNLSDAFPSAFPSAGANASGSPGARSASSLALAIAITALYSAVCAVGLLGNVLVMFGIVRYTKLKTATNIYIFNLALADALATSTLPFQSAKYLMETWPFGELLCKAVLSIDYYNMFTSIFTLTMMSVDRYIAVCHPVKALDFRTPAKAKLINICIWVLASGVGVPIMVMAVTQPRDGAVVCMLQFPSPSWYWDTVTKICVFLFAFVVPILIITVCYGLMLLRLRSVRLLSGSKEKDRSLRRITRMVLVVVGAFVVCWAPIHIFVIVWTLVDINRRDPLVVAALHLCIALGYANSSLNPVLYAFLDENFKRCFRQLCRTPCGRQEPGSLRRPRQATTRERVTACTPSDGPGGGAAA
Kappa-type opioid receptor, sequence (P41144 whole entry): as the sequence (P41144 whole entry) above

`Cc1cc(O)cc(C)c1C[C@H](N)C(=O)N[C@@H]1CSSC[C@H](C(N)=O)NC(=O)[C@H](Cc2ccc([N+](=O)[O-])cc2)NC(=O)CNC1=O`: the Ki in experiment [1] amounted to 0.24 nM; in experiment [3], 3.77 nM. This compound also came in with an IC50 in experiment [2] of 0.54 nM.

With `Cc1cc(O)cc(C)c1[C@H](C)CC(=O)N[C@H]1CSSC[C@H](C(N)=O)NC(=O)[C@H](Cc2ccc([N+](=O)[O-])cc2)NC(=O)CNC1=O`, the figures for the Ke in experiment [4], in experiment [5] and in experiment [6] were 3280 nM, 845 nM and 1630 nM, respectively. The Ki in experiment [1] amounted to 94.4 nM; in experiment [3], 6970 nM.

As for `Cc1cc(O)cc(C)c1CCC(=O)N[C@H]1CSSC[C@H](C(N)=O)NC(=O)[C@H](Cc2ccc([N+](=O)[O-])cc2)NC(=O)CNC1=O`, the Ke is 63.3 nM in experiment [4], 3.68 nM in experiment [5] and 22.6 nM in experiment [6]. The Ki in experiment [1] was determined as 4.79 nM; in experiment [3] it was 299 nM.

As to `Cc1cc(O)cc(C)c1[C@@H](C)CC(=O)N[C@H]1CSSC[C@H](C(N)=O)NC(=O)[C@H](Cc2ccc([N+](=O)[O-])cc2)NC(=O)CNC1=O`, the Ke in experiment [4] was 55 nM; in experiment [5] it was 1.4 nM; in experiment [6], 5.81 nM. Moreover, the Ki was determined as 2.1 nM in experiment [7] and 49.5 nM in experiment [3].
